In the supplement of paper PMC10307832:

Tests used:
Experiment in all cases: relative viability (nuclei count vs DMSO), 5 days (fraction); higher = more cells survive
A-427 = tested on: A-427
Procedure, shortened: (§1)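 Lung cancer cell lines were seeded in 1536-well plates and dosed by pin tool the next day, with either a single drug or a fixed anchor-drug dose combined with five library-drug doses (not always all listed) spaced in √10 steps. Five days later, one step fixed the cells and stained their nuclei (final 0.05% Triton X-100, 1% formaldehyde, 1 ug/ml Hoechst), and nuclei were counted on 4× images. Relative viability is the nuclei count in treated wells divided by the count in vehicle wells, and each value is the median of duplicate plates.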

CAL-12T = tested on: CAL-12T
Procedure, shortened: as §1

LK-2 = tested on: LK-2
Procedure, shortened: as §1

NCI-H1648 = tested on: NCI-H1648
Procedure, shortened: as §1

NCI-H1703 = tested on: NCI-H1703
Procedure, shortened: as §1

NCI-H1734 = tested on: NCI-H1734
Procedure, shortened: as §1

IA-LM = tested on: IA-LM
Procedure, shortened: as §1

NCI-H1650 = tested on: NCI-H1650
Procedure, shortened: as §1

NCI-H2009 = tested on: NCI-H2009
Procedure, shortened: as §1

UMC-11 = tested on: UMC-11
Procedure, shortened: as §1

Q: What does the source list for `COc1nc(C)cnc1NS(=O)(=O)c1cccnc1-c1ccc(-c2nnco2)cc1` [Zibotentan] + NC(=O)Nc1cc(-c2cccc(F)c2)sc1C(=O)N[C@H]1CCCNC1 [AZD7762] (partner 0.2 µM)?
A: relative viability (A-427; first compound 0.08 µM): 0.905; relative viability (A-427; first compound 0.253 µM): 0.666; relative viability (A-427; first compound 0.8 µM): 0.655; relative viability (A-427; first compound 2.53 µM): 0.834; relative viability (CAL-12T; first compound 0.08 µM): 0.604; relative viability (CAL-12T; first compound 0.253 µM): 0.498; relative viability (CAL-12T; first compound 0.8 µM): 0.526; relative viability (CAL-12T; first compound 2.53 µM): 0.666; relative viability (LK-2; first compound 0.08 µM): 0.479; relative viability (LK-2; first compound 0.253 µM): 0.327; relative viability (LK-2; first compound 0.8 µM): 0.441; relative viability (LK-2; first compound 2.53 µM): 0.282; relative viability (NCI-H1648; first compound 0.08 µM): 0.637; relative viability (NCI-H1648; first compound 0.253 µM): 0.596; relative viability (NCI-H1648; first compound 0.8 µM): 0.596; relative viability (NCI-H1648; first compound 2.53 µM): 0.63; relative viability (NCI-H1703; first compound 0.08 µM): 0.139; relative viability (NCI-H1703; first compound 0.253 µM): 0.114; relative viability (NCI-H1703; first compound 0.8 µM): 0.108; relative viability (NCI-H1703; first compound 2.53 µM): 0.121; relative viability (NCI-H1734; first compound 0.08 µM): 0.629; relative viability (NCI-H1734; first compound 0.253 µM): 0.521; relative viability (NCI-H1734; first compound 0.8 µM): 0.499; relative viability (NCI-H1734; first compound 2.53 µM): 0.55

Q: Which relative viability (A-427; first compound 0.01 µM) does the source give for `CCN(CC)CCCCNc1ncc2cc(-c3cc(OC)cc(OC)c3)c(NC(=O)NC(C)(C)C)nc2n1` + O=C(CCCCCCC(=O)Nc1ccccc1)NO [Vorinostat] (partner 1 µM) here?
A: The relative viability was 0.806.

Q: What about the relative viability (A-427; first compound 0.03162 µM) of the same compound?
A: The relative viability was 0.919.

Q: What about the relative viability (A-427; first compound 0.1 µM) of the same compound?
A: Its relative viability is 1.02.

Q: And the relative viability (A-427; first compound 0.3162 µM)?
A: The relative viability was 0.926.

Q: And the relative viability (A-427; first compound 1 µM)?
A: The relative viability was 0.817.

Q: And the relative viability (CAL-12T; first compound 0.01 µM)?
A: The relative viability was 0.784.

Q: What about the relative viability (CAL-12T; first compound 0.03162 µM) of the same compound?
A: Its relative viability is 0.702.

Q: What about the relative viability (CAL-12T; first compound 0.1 µM) of the same compound?
A: The relative viability was 0.766.

Q: What about the relative viability (CAL-12T; first compound 0.3162 µM) of the same compound?
A: Its relative viability is 0.778.

Q: What about the relative viability (CAL-12T; first compound 1 µM) of the same compound?
A: Its relative viability is 0.845.

Q: What about the relative viability (IA-LM; first compound 0.01 µM) of the same compound?
A: Its relative viability is 0.963.

Q: What about the relative viability (IA-LM; first compound 0.03162 µM) of the same compound?
A: The relative viability was 0.836.

Q: What about the relative viability (IA-LM; first compound 0.1 µM) of the same compound?
A: Its relative viability is 0.852.

Q: What about the relative viability (IA-LM; first compound 0.3162 µM) of the same compound?
A: The relative viability was 1.26.

Q: And the relative viability (IA-LM; first compound 1 µM)?
A: Its relative viability is 0.979.

Q: What about the relative viability (LK-2; first compound 0.01 µM) of the same compound?
A: The relative viability was 0.266.

Q: What about the relative viability (LK-2; first compound 0.03162 µM) of the same compound?
A: The relative viability was 0.213.

Q: What about the relative viability (LK-2; first compound 0.1 µM) of the same compound?
A: The relative viability was 0.2.

Q: And the relative viability (LK-2; first compound 0.3162 µM)?
A: Its relative viability is 0.235.

Q: And the relative viability (LK-2; first compound 1 µM)?
A: The relative viability was 0.252.

Q: What about the relative viability (NCI-H1648; first compound 0.01 µM) of the same compound?
A: The relative viability was 0.48.

Q: And the relative viability (NCI-H1648; first compound 0.03162 µM)?
A: Its relative viability is 0.352.

Q: And the relative viability (NCI-H1648; first compound 0.1 µM)?
A: Its relative viability is 0.666.

Q: What about the relative viability (NCI-H1648; first compound 0.3162 µM) of the same compound?
A: The relative viability was 0.602.

Q: And the relative viability (NCI-H1648; first compound 1 µM)?
A: The relative viability was 0.327.

Q: And the relative viability (NCI-H1650; first compound 0.01 µM)?
A: Its relative viability is 0.625.

Q: And the relative viability (NCI-H1650; first compound 0.03162 µM)?
A: The relative viability was 0.616.

Q: What about the relative viability (NCI-H1650; first compound 0.1 µM) of the same compound?
A: Its relative viability is 0.531.

Q: What about the relative viability (NCI-H1650; first compound 0.3162 µM) of the same compound?
A: Its relative viability is 0.655.

Q: What about the relative viability (NCI-H1650; first compound 1 µM) of the same compound?
A: The relative viability was 0.432.

Q: And the relative viability (NCI-H1734; first compound 0.01 µM)?
A: Its relative viability is 0.849.

Q: And the relative viability (NCI-H1734; first compound 0.03162 µM)?
A: Its relative viability is 0.874.

Q: What about the relative viability (NCI-H1734; first compound 0.1 µM) of the same compound?
A: Its relative viability is 0.974.

Q: What about the relative viability (NCI-H1734; first compound 0.3162 µM) of the same compound?
A: The relative viability was 0.864.

Q: What about the relative viability (NCI-H1734; first compound 1 µM) of the same compound?
A: The relative viability was 0.757.

Q: What about the relative viability (NCI-H2009; first compound 0.01 µM) of the same compound?
A: The relative viability was 0.731.

Q: What about the relative viability (NCI-H2009; first compound 0.03162 µM) of the same compound?
A: The relative viability was 0.749.

Q: And the relative viability (NCI-H2009; first compound 0.1 µM)?
A: Its relative viability is 0.78.

Q: What about the relative viability (NCI-H2009; first compound 0.3162 µM) of the same compound?
A: Its relative viability is 0.78.

Q: And the relative viability (NCI-H2009; first compound 1 µM)?
A: Its relative viability is 0.624.

Q: And the relative viability (UMC-11; first compound 0.01 µM)?
A: The relative viability was 0.4.

Q: And the relative viability (UMC-11; first compound 0.03162 µM)?
A: The relative viability was 0.36.

Q: What about the relative viability (UMC-11; first compound 0.1 µM) of the same compound?
A: Its relative viability is 0.361.

Q: What about the relative viability (UMC-11; first compound 0.3162 µM) of the same compound?
A: The relative viability was 0.394.

Q: What about the relative viability (UMC-11; first compound 1 µM) of the same compound?
A: The relative viability was 0.311.

Q: For `O=c1cc(-c2cccc3c2Sc2ccccc2S3)oc(N2CCOCC2)c1` + NC(=O)Nc1cc(-c2cccc(F)c2)sc1C(=O)N[C@H]1CCCNC1 [AZD7762] (partner 0.2 µM), which relative viability (A-427; first compound 0.08 µM) is on record?
A: Its relative viability is 0.715.

Q: And the relative viability (A-427; first compound 0.253 µM)?
A: The relative viability was 0.842.

Q: And the relative viability (A-427; first compound 0.8 µM)?
A: Its relative viability is 0.791.

Q: And the relative viability (A-427; first compound 2.53 µM)?
A: Its relative viability is 0.41.

Q: What about the relative viability (A-427; first compound 8 µM) of the same compound?
A: Its relative viability is 0.616.

Q: And the relative viability (CAL-12T; first compound 0.08 µM)?
A: Its relative viability is 0.585.

Q: And the relative viability (CAL-12T; first compound 0.253 µM)?
A: The relative viability was 0.555.

Q: What about the relative viability (CAL-12T; first compound 0.8 µM) of the same compound?
A: The relative viability was 0.601.

Q: What about the relative viability (CAL-12T; first compound 2.53 µM) of the same compound?
A: The relative viability was 0.626.

Q: What about the relative viability (CAL-12T; first compound 8 µM) of the same compound?
A: Its relative viability is 0.642.

Q: What about the relative viability (LK-2; first compound 0.08 µM) of the same compound?
A: Its relative viability is 0.468.

Q: What about the relative viability (LK-2; first compound 0.253 µM) of the same compound?
A: The relative viability was 0.331.

Q: What about the relative viability (LK-2; first compound 0.8 µM) of the same compound?
A: Its relative viability is 0.374.

Q: And the relative viability (LK-2; first compound 2.53 µM)?
A: Its relative viability is 0.219.

Q: And the relative viability (LK-2; first compound 8 µM)?
A: The relative viability was 0.458.

Q: And the relative viability (NCI-H1648; first compound 0.253 µM)?
A: The relative viability was 0.694.

Q: What about the relative viability (NCI-H1648; first compound 0.8 µM) of the same compound?
A: The relative viability was 0.734.

Q: And the relative viability (NCI-H1648; first compound 8 µM)?
A: Its relative viability is 0.69.

Q: What about the relative viability (NCI-H1703; first compound 0.253 µM) of the same compound?
A: Its relative viability is 0.13.

Q: What about the relative viability (NCI-H1703; first compound 2.53 µM) of the same compound?
A: The relative viability was 0.098.

Q: And the relative viability (NCI-H1703; first compound 8 µM)?
A: The relative viability was 0.116.

Q: What about the relative viability (NCI-H1734; first compound 0.08 µM) of the same compound?
A: The relative viability was 0.512.

Q: And the relative viability (NCI-H1734; first compound 0.253 µM)?
A: Its relative viability is 0.541.

Q: And the relative viability (NCI-H1734; first compound 0.8 µM)?
A: The relative viability was 0.581.

Q: And the relative viability (NCI-H1734; first compound 8 µM)?
A: The relative viability was 0.63.
